Assay results: patent US20050143336A1 (priority 2003, published 2005)
Entries after “also recorded” stand apart in the source; their conditions may differ.

Experiments:
PGE2 production = PGE2 production assay in cells transfected with FUS1-nanoparticles; type: cell-based, Human; conditions: naproxen 0.5 mM prior to FUS1-nanoparticles
Experimental: PGE2 production assay. Cells were seeded in 6-well plates (1-3×10^6 cells/well) and incubated at 37° C. Twenty-four hours later, the culture medium was replaced and replenished with fresh medium supplemented with 0.2% serum. […] At 3.5 h after treatment cells were transfected with FUS1-nanoparticles (2.5 μg DNA). The amount of PGE2 secreted into the culture supernatant at various time (2 h, 4 h, and 15 h) points was determined using the PGE2 enzyme immunoassay (Cayman Chemicals, Ann Arbor, Mich.). Assay was performed according to manufacturer's protocol.

AP-1 = AP-1 DNA binding activity, electrophoretic mobility shift assay in MRC-9 cells; type: cell-based, Human; conditions: naproxen pretreatment before FUS1-nanoparticles
Experimental: Electrophoretic mobility shift assay (EMSA). MRC-9 cells were seeded in six well plates at 1.3×10^6 cells/well for EMSA. […] Cells were harvested at 2, 4 and 15 h after transfection and nuclear extracts prepared. To the nuclear extracts (10 μg), DNA binding reaction mixture containing [γ-^32P]-ATP radiolabeled AP-1 oligonucleotide and 0.5 μg poly (dI-dC) were added and incubated at 25° C. for 30 min in 5× gel shift binding buffer [20% glycerol, 5 mM MgCl2 2.5 mM EDTA, 2.5 mM DTT, 250 mM NaCl, 50 mM Tris-HCl (pH 7.5)]. The complexes were subsequently resolved on 5% nondenaturing polyacrylamide gels in 0.5×Tris-borate EDTA buffer for 1 h 30 min at 300 V. The bands were visualized by autoradiography.

[1] = tested on: p38, JNK, ERK, pATF2, pcJun, STAT3, COX-2; experiment: Western blot of signaling molecules in lung, liver and spleen after FUS1-nanoparticle with or without naproxen; type: in vivo, C3H mice
Experimental: Western blot analysis for the Signaling molecules. At the time of western blot analysis, organs were slowly thawed on ice. […] Whole Cell lysates were collected in an Eppendorf tube and sonicated for 30 seconds and heated in a water bath at 95° C. for 5 mins and then centrifuged at 13000 rpm for 10 min at 4° C. The supernatants were mixed with 5% 2-mercaptoethanol and stored at −80° C. Protein concentrations was determined by BCA protein assay. Aliquots of cell extracts containing 50 μg of total protein were resolved in 10% SDS-PAGE and transferred from gel to nitrocellulose membrane (Hybond-ECL; Amersham Pharmacia Biotech, UK) and then blocked for 1 h at room temperature (5% nonfat milk powder and 0.1% Tween 20 in TBS or PBS). Then the membranes were incubated with the primary antibodies, phosphospcific p38 (1:1000), phosphospecific pJNK (1:1000), phosphospecific p44/42 (1:1000), phospho ATF2 (1:1000), phospho cJun (1:1000), phospho STAT3 (1:1000) and COX-2 (1:1000). The membranes were then incubated with HRP-conjugated rabbit IgG Ab (Amersham) and the bound antibodies were visualized by enhanced chemiluminescence (Amersham; Piscataway, N.J.). The expression of α-actin was used as the loading control.

[2] = tested on: p38MAPK, JNK, p44/42 MAPK, ATF2, cJun, STAT3, COX-2 in RAW 264.7 cells; experiment: Signaling molecules in RAW 264.7 macrophage cells transfected with FUS1-nanoparticle (western blot); type: cell-based, Mouse
Experimental: In vitro experiments. To determine the effect of nanoparticle-FUS1 complex on the activation of signaling molecules associated with inflammation, RAW macrophage cells were seeded in six-well plates (1×10^6 cells/well) and incubated overnight at 37° C. and 5% CO2. The following day, tissue culture medium was replaced with fresh 0.2% medium and incubated overnight at 37° C. and 5% CO2. […] Two-three hours after treatment, cells were transfected with FUS1-nanoparticle (2.5 μg DNA) in 0.2% serum medium. Cells were harvested at different time-points (2 h, 4 h, 15 h) after transfection, washed, and cell lysates prepared as previously described (Ramesh et al., 2001a). Untransfected cells treated with PBS served as control in these experiments. Cell lysates were subjected to western blotting analysis and probed with various antibodies as previously described (Ito et al., 2003). In all the experiments, β-actin was detected using anti-β-actin antibody (Sigma Chemicals, St. Louis, Mo.) as a measure of internal loading control.

[3] = tested on: FUS1 protein expression in the lungs; conditions: naproxen 15 mg/kg orally 2 hour prior to i.v. DOTAP:Chol-FUS1 complex vs complex alone
Experimental: In vivo treatment of immunocompetent animals by intravenous injection of DOTAP:Cholesterol-FUS1 complex. Female C3H mice were divided into 3 groups (n=12/group). […] Lung tissues were later homogenized, and total protein lysates prepared. Protein concentration in the lysate were determined by the BCA method and analyzed for FUS1 expression by western blot analysis. FUS1 protein was detected using a anti-FUS1 antibody. Untreated animals served as controls.

SMILES: COc1ccc2cc([C@H](C)C(=O)O)ccc2c1 [Naproxen, naproxen]
- inhibition of PGE2 (PGE2 production): almost complete; also recorded: significantly inhibition in PGE2 levels
- secreted PGE2 levels (PGE2 production; 2-15 h): 33 to 120 pg/mL
- AP-1 DNA binding activity (AP-1): inhibition of AP-1 activity
- phosphorylation of JNK, ATF-2, cJun, STAT3 ser727 and Tyr 705 in liver and spleen ([1]; naproxen 15 mg/kg): inhibited
- p38 phosphorylation in lung ([1]; naproxen 15 mg/kg 2 h before FUS1-nanoparticle, all time points): complete inhibition
- JNK and ERK phosphorylation in lung ([1]; naproxen 15 mg/kg, 2 and 4 h): partial inhibition
- COX-2 induced by FUS1-nanoparticle ([1]; naproxen 15 mg/kg, 2 h): inhibition
- phosphorylation of ATF-2, cJUN and STAT3 (Ser 727, Tyr705) in lung ([1]; naproxen 15 mg/kg, 4 h and 15 h): inhibited
- p38MAPK, pJNK, pATF-2 and pcjun ([2]; RAW 264.7, 0.5 mM naproxen pretreatment, 2 and 4 h): significantly inhibited
- phosphorylation of STAT 3 ([2]; RAW 264.7, 0.5 mM naproxen, 4 and 15 h): inhibited
- expression of COX-2 ([2]; RAW 264.7, 0.5 mM naproxen, 4 h): inhibited
- FUS1 protein expression in the lungs [3]: No significant differences
